Columns and labels:
[1] = Cytotoxicity against HBE (human bronchial epithelial) cells assessed as reduction in cell viability incubated for 48 hrs by MTT assay; assay type: toxicity, cell-based
NCI-H446 = assay: Antiproliferative activity against human NCI-H446 cells assessed as reduction in cell viability incubated for 48 hrs by MTT assay; assay type: functional, cell-based; details: NCI-H446, 48 h
A549 = assay: Antiproliferative activity against human A549 cells assessed as reduction in cell viability incubated for 48 hrs by MTT assay; assay type: functional, cell-based; details: A549, 48 h
[2] = Cytotoxicity against human HL7702 cells assessed as reduction in cell viability incubated for 48 hrs by MTT assay; assay type: toxicity, cell-based; details: HL7702 (L02) cells
HepG2 = assay: Antiproliferative activity against human HepG2 cells assessed as reduction in cell viability incubated for 48 hrs by MTT assay; assay type: functional, cell-based; details: HepG2, 48 h
[3] = Selectivity index, ratio of IC50 for cytotoxicity against HBE (human bronchial epithelial) cells to IC50 for antiproliferative activity against human NCI-H446 cells; assay type: toxicity, cell-based; details: HBE (human bronchial epithelial) cells versus NCI-H446 cells, read-out: Ratio IC50

SMILES | IC50 at 48 h [1] [µM] | IC50 (NCI-H446) [µM] | IC50 (A549) [µM] | IC50 at 48 h [2] [µM] | IC50 (HepG2) [µM] | selectivity ratio [3]
C=CCc1ccc(OC)c(-c2ccc(OCCCCCCCCCCOC(=O)Cc3c4[n+](cc5c(OC)c(OC)ccc35)CCc3cc5c(cc3-4)OCO5)c(CC=C)c2)c1 | 5.01 | 1.57 | 2.7 | 2.01 | 2.4 | –
C=CCc1ccc(OCCCCCCCCCCOC(=O)Cc2c3[n+](cc4c(OC)c(OC)ccc24)CCc2cc4c(cc2-3)OCO4)c(-c2ccc(OCCC)c(CC=C)c2)c1 | 17.5 | 5.45 | 4.32 | 3.96 | 4.16 | –
C=CCc1ccc(OC(=O)Cc2c3[n+](cc4c(OC)c(OC)ccc24)CCc2cc4c(cc2-3)OCO4)c(-c2ccc(OCCC)c(CC=C)c2)c1 | 7.08 | 5.17 | 4.12 | 3.8 | 2.23 | –
C=CCc1ccc(OCCC[n+]2ccc(/C=C/c3c[nH]c4ccccc34)cc2)c(-c2ccc(OCCC)c(CC=C)c2)c1 | 9.47 | 1.74 | 1.69 | 1.77 | 1.14 | –
CCCCCCOC(=O)Cc1c2[n+](cc3c(OC)c(OC)ccc13)CCc1cc3c(cc1-2)OCO3 | 10.6 | 13 | 6.11 | 19 | > 10 | –
C=CCc1ccc(OC)c(-c2ccc(OCCCOC(=O)Cc3c4[n+](cc5c(OC)c(OC)ccc35)CCc3cc5c(cc3-4)OCO5)c(CC=C)c2)c1 | 21.6 | 3.53 | 7.74 | 4.76 | 3.14 | 3.53
C=CCc1ccc(OCCCCCCOC(=O)Cc2c3[n+](cc4c(OC)c(OC)ccc24)CCc2cc4c(cc2-3)OCO4)c(-c2ccc(OCCC)c(CC=C)c2)c1 | 7.08 | 2.37 | 3.41 | 5.7 | 1.82 | –
CCCCCCCCCCOC(=O)Cc1c2[n+](cc3c(OC)c(OC)ccc13)CCc1cc3c(cc1-2)OCO3 | 4.35 | 1.72 | 1.53 | 3.83 | 4.23 | –
COc1ccc2cc3[n+](cc2c1OC)CCc1cc2c(cc1-3)OCO2 [BERBERINE CHLORIDE] | > 50 | > 50 | > 50 | > 50 | > 50 | –
C=CCc1ccc(OC)c(-c2ccc(OC(=O)Cc3c4[n+](cc5c(OC)c(OC)ccc35)CCc3cc5c(cc3-4)OCO5)c(CC=C)c2)c1 | 16.1 | 4.72 | 5.5 | 4.21 | 2.85 | –
CCCCCCCCCCCCc1c2[n+](cc3c(OC)c(OC)ccc13)CCc1cc3c(cc1-2)OCO3 | 1.23 | 0.65 | 0.86 | 2.78 | 2.72 | –
C=CCc1ccc(OCCC[n+]2ccc(/C=C/c3c[nH]c4ccccc34)cc2)c(-c2ccc(OC)c(CC=C)c2)c1 | 9.84 | 3.29 | 3.27 | 4.62 | 1.75 | –
C=CCc1ccc(OC)c(-c2ccc(OCCC[n+]3ccc(/C=C/c4c[nH]c5ccccc45)cc3)c(CC=C)c2)c1 | 20.4 | 6.34 | 5.32 | 8.12 | 4.53 | –
C=CCc1ccc(OC)c(-c2ccc(OCCCCCC[n+]3ccc(/C=C/c4c[nH]c5ccccc45)cc3)c(CC=C)c2)c1 | 20.4 | 3.02 | 3.38 | 3.56 | 2.68 | –
C=CCc1ccc(OCCCCCC[n+]2ccc(/C=C/c3c[nH]c4ccccc34)cc2)c(-c2ccc(OCCC)c(CC=C)c2)c1 | 11.1 | 3.28 | 4.93 | 2.34 | 2.35 | –
C=CCc1ccc(OC(=O)Cc2c3[n+](cc4c(OC)c(OC)ccc24)CCc2cc4c(cc2-3)OCO4)c(-c2ccc(OC)c(CC=C)c2)c1 | 8.14 | 3.22 | 5.52 | 5 | 2.67 | –
CCCOC(=O)Cc1c2[n+](cc3c(OC)c(OC)ccc13)CCc1cc3c(cc1-2)OCO3 | > 30 | > 10 | 15.9 | > 30 | > 30 | –
